Experiments:
bacterial vaginosis = test: Phase II clinical trial, recovery by Amsel criteria and Nugent score; type: in vivo, human; conditions: for Recovery of patients after relapse of bacterial vaginosis / Recovery of patients suffering from a first episode of bacterial vaginosis: visit V4 as titled, Amsel and Nugent
Source text: The example describes the clinical trial Phase II carried out on 114 patients affected by bacterial vaginosis, non-pregnant, having an age between 18 and 50 years. The diagnosis of bacterial vaginosis was based on Amsel criteria, wherein at least three criteria out of four must be positive, and on the Nugent score, wherein a score higher than four indicates the presence of pathogenic vaginal bacteria. The objectives of the trial were the evaluation of recovery from bacterial vaginosis both according to Amsel criteria (Amsel index <3) and according to Nugent score (Nugent index <4) 7-10 days after the end of the therapy. The secondary objectives of the trial were the recovery, separately evaluated according to Amsel criteria and to Nugent score, at the first control visit (V3), the continued recovery at the second control visit (V4) and the evaluation of the composition of vaginal microbiota by means of PCR and PCR-DGGE. In particular, the patients affected by bacterial vaginosis and not affected by contemporaneous viral, protozoan and fungal vaginal infections were assigned to one of the following treatment groups using a centralized randomization procedure and a double-blind experimental design: Group A: 21 patients receiving a vaginal tablet of rifaximin containing 100 mg rifaximin, prepared according to Example 2, once a day for five days, in the evening; Group B: 23 patients receiving a vaginal tablet of rifaximin containing 25 mg rifaximin, prepared according to Example 1, once a day for five days, in the evening; Group C: 19 patients receiving a vaginal tablet of rifaximin containing 100 mg rifaximin, prepared according to Example 2, once a day for two days, in the evening, plus a vaginal tablet of placebo, once a day for the remaining three days, in the evening; Group D: 22 patients receiving a placebo tablet prepared according to Example 1, wherein the rifaximin amount was replaced by lactose monohydrate, once a day for five days, in the evening. The study included a screening visit (V1) followed by a randomization visit after seven days (V2), by a first control visit 7-10 days after the end of the therapy (V3) and by a second and last control visit 28-35 days after the end of the therapy (V4). The evaluation of the attainment of the primary objective was carried out during visit V3, and the evaluation of the attainment of the secondary objectives was evaluated during the second and last visit (V4). Table 18 reports the percent recovery from the disease at the visit V3, according to both evaluation criteria, namely the clinical one (Amsel) and the microbiological (Nugent). The recovery was evaluated according to Nugent score by using a Gram stained slide and by evaluating the proportion between Lactobacilli and other bacteria such as Gram-variable or Gram-negative coccobacilli, Gram-variable curved bacilli.

vaginal microbiota = test: Vaginal microbiota by PCR-DGGE (cluster analysis, Similarity Index, Richness Index); type: in vivo, human; set-up: key to Similarity Index V1-V3 / Similarity Index V1-V4 / Similarity Index V3-V4 / Similarity Index V1-V3-V4: % similarity between DGGE profiles (Pearson correlation)
Protocol: During the clinical trial samples of vaginal rinses were taken, and the composition of vaginal microbiota was determined by means of the PCR-DGGE technique, allowing the identification of various bacterial DNA through an electrophoretic process and a DNA amplification with universal primers for the bacterial 16S rRNA region. The result of this technique was a sequence of visible bands, called clusters, wherein each of them is representative for the DNA of bacterial species present in the considered sample. The analysis of clusters of DGGE profiles of samples, carried out by using the FPQuest software (Bio-Rad) gives the information relating to the similarity of two samples. In the specific case wherein the recovery is intended as reduction of pathogenic species, it is positive that the sample of a patient after treatment is quite different from the sample of the same patient before treatment. The analysis was carried out with vaginal samples at the visits V1, V3 and V4 for the four groups A, B, C and D of treated patients. In order to evaluate the pharmacological action of the examined rifaximin preparations, different treatment groups were compared through the so called Similarity Indexes (SI). The analysis consists in evaluating the similarity of electrophoretic profiles calculated on the basis of the Pearson correlation coefficient. In the examined case, SI indicates the percent similarity between two or more DGGE profiles belonging to the same person at the different visits. Another adopted criterion of evaluation of the samples is the so called Richness Index (RI). This criterion, based on the bands of each DGGE profile, gives the measure of the complexity of the bacterial population, which is a sign of disease for the occurrence of new pathogenic species. Table 32 reports the RI average values, measured at the visits V1 and V3.

[1] = visit V3, Group A: 1 tablet 100 mg × 5 days
[2] = visit V3, Group A: 1 tablet 100 mg × 5 days, listed as rifaximin
[3] = visit V3, Group B: 1 tablet 25 mg × 5 days
[4] = visit V3, Group B: 1 tablet 25 mg × 5 days, listed as rifaximin
[5] = visit V3, Group C: 1 tablet 100 mg × 2 days
[6] = visit V3, Group C: 1 tablet 100 mg × 2 days, listed as rifaximin
[7] = Group A: 1 tablet 100 mg × 5 days
[8] = Group B: 1 tablet 25 mg × 5 days
[9] = Group C: 1 tablet 100 mg × 2 days

CO[C@H]1/C=C/O[C@@]2(C)Oc3c(C)c(O)c4c(O)c(c5c(nc6cc(C)ccn65)c4c3C2=O)NC(=O)/C(C)=C\C=C\[C@H](C)[C@H](O)[C@@H](C)[C@@H](O)[C@@H](C)[C@H](OC(C)=O)[C@@H]1C [Rifaximin]
Patients with decrease Nugent score ≥8 points (bacterial vaginosis; [1]): 14.29%
Patients with decreased Nugent score ≤0 points (not responding) (bacterial vaginosis; [1]): 9.52%
Patients with decreased Nugent score ≥3 points (bacterial vaginosis; [1]): 52.4%
Patients with decreased Nugent score ≥5 points (bacterial vaginosis; [1]): 28.6%
Recovered patients, both criteria (Amsel and Nugent) (bacterial vaginosis; [1]): 25.9%
Recovered patients, clinical evaluation criteria (Amsel) (bacterial vaginosis; [1]): 66.7%
Recovered patients, microbiological evaluation criteria (Nugent) (bacterial vaginosis; [1]): 25.9%
Patients with decreased Nugent score ≥3 points (bacterial vaginosis; [2]): higher than 50%
Patients with decreased Nugent score ≥5 points (bacterial vaginosis; [2]): about 28%
Recovered patients, microbiological evaluation criteria (Nugent) (bacterial vaginosis; [2]): about 25%
Patients with decrease Nugent score ≥8 points (bacterial vaginosis; [3]): 17.39%
Patients with decreased Nugent score ≤0 points (not responding) (bacterial vaginosis; [3]): 17.39%
Patients with decreased Nugent score ≥3 points (bacterial vaginosis; [3]): 65.2%
Patients with decreased Nugent score ≥5 points (bacterial vaginosis; [3]): 47.8%
Recovered patients, both criteria (Amsel and Nugent) (bacterial vaginosis; [3]): 48.0%
Recovered patients, clinical evaluation criteria (Amsel) (bacterial vaginosis; [3]): 80.0%
Recovered patients, microbiological evaluation criteria (Nugent) (bacterial vaginosis; [3]): 48.0%
Patients with decreased Nugent score ≥3 points (bacterial vaginosis; [4]): higher than 65%
Patients with decreased Nugent score ≥5 points (bacterial vaginosis; [4]): about 48%
Recovered patients, microbiological evaluation criteria (Nugent) (bacterial vaginosis; [4]): 47%
Patients with decrease Nugent score ≥8 points (bacterial vaginosis; [5]): 15.79%
Patients with decreased Nugent score ≤0 points (not responding) (bacterial vaginosis; [5]): 36.84%
Patients with decreased Nugent score ≥3 points (bacterial vaginosis; [5]): 36.9%
Patients with decreased Nugent score ≥5 points (bacterial vaginosis; [5]): 26.3%
Recovered patients, both criteria (Amsel and Nugent) (bacterial vaginosis; [5]): 36.0%
Recovered patients, clinical evaluation criteria (Amsel) (bacterial vaginosis; [5]): 72.0%
Recovered patients, microbiological evaluation criteria (Nugent) (bacterial vaginosis; [5]): 36.0%
Patients with decreased Nugent score ≥3 points (bacterial vaginosis; [6]): higher than 30%
Patients with decreased Nugent score ≥5 points (bacterial vaginosis; [6]): about 26%
Recovered patients, microbiological evaluation criteria (Nugent) (bacterial vaginosis; [6]): about 36%
Recovered patients, both criteria (Amsel and Nugent) (bacterial vaginosis; visit V4, Group A: 1 tablet 100 mg × 5 days): 14.8%
Recovered patients, both criteria (Amsel and Nugent) (bacterial vaginosis; visit V4, Group B: 1 tablet 25 mg × 5 days): 28.0%
Recovered patients, both criteria (Amsel and Nugent) (bacterial vaginosis; visit V4, Group C: 1 tablet 100 mg × 2 days): 4.0%
Recovery of patients after relapse of bacterial vaginosis (bacterial vaginosis; [7]): 38.5%
Recovery of patients suffering from a first episode of bacterial vaginosis (bacterial vaginosis; [7]): 14.3%
Recovery of patients after relapse of bacterial vaginosis (bacterial vaginosis; [8]): 53.8%
Recovery of patients suffering from a first episode of bacterial vaginosis (bacterial vaginosis; [8]): 41.7%
Recovery of patients after relapse of bacterial vaginosis (bacterial vaginosis; [9]): 46.2%
Recovery of patients suffering from a first episode of bacterial vaginosis (bacterial vaginosis; [9]): 25.0%
Percent of patients with clusterizing profiles, V1 vs. V3 (vaginal microbiota; [7]): 37%
Percent of patients with clusterizing profiles, V1 vs. V3 vs. V4 (vaginal microbiota; [7]): 0%
Similarity Index V1-V3 (vaginal microbiota; [7]): 61.6
Similarity Index V1-V3-V4 (vaginal microbiota; [7]): 50.8
Similarity Index V1-V4 (vaginal microbiota; [7]): 52.1
Similarity Index V3-V4 (vaginal microbiota; [7]): 66.8
Percent of patients with clusterizing profiles, V1 vs. V3 (vaginal microbiota; [8]): 24%
Percent of patients with clusterizing profiles, V1 vs. V3 vs. V4 (vaginal microbiota; [8]): 0%
Similarity Index V1-V3 (vaginal microbiota; [8]): 48.4
Similarity Index V1-V3-V4 (vaginal microbiota; [8]): 36.4
Similarity Index V1-V4 (vaginal microbiota; [8]): 40.0
Similarity Index V3-V4 (vaginal microbiota; [8]): 62.1
Percent of patients with clusterizing profiles, V1 vs. V3 (vaginal microbiota; [9]): 28%
Percent of patients with clusterizing profiles, V1 vs. V3 vs. V4 (vaginal microbiota; [9]): 11%
Similarity Index V1-V3 (vaginal microbiota; [9]): 54.0
Similarity Index V1-V3-V4 (vaginal microbiota; [9]): 37.6
Similarity Index V1-V4 (vaginal microbiota; [9]): 47.1
Similarity Index V3-V4 (vaginal microbiota; [9]): 42.8
Richness Index (vaginal microbiota; visit V1 (before therapy), Group A: 1 tablet 100 mg × 5 days): 13.5
Richness Index (vaginal microbiota; visit V1 (before therapy), Group B: 1 tablet 25 mg × 5 days): 14.0
Richness Index (vaginal microbiota; visit V1 (before therapy), Group C: 1 tablet 100 mg × 2 days): 15.4
Richness Index (vaginal microbiota; [1]): 10.9
Richness Index (vaginal microbiota; [3]): 10.7
Richness Index (vaginal microbiota; [5]): 12.2

Reference: patent publication US10258610B2, “Pharmaceutical compositions comprising rifaximin, processes for their preparation and their use in the treatment of vaginal infections” (ALFASIGMA S.P.A., priority 2011, dated 2019)
